Source: ChEMBL document CHEMBL1201862, “PubChem BioAssay data set” (2004)
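Protocol summary: plate cells (96-well), add compound at 5 concentrations, incubate 48 h, interpolate endpoints linearly. Abbreviation: GI50, concentration required for 50% inhibition of growth.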 Active and inactive are the calls of the source. Cut-off read from the data, not from the text of the source: active = GI50 up to about 1.1 µM and inactive = higher.

Experiments:
Assay in all cases: NCI-60 cell line screen, 48 h
[1] = tested on: EKVX
[2] = tested on: RXF 393
[3] = tested on: TK-10
[4] = tested on: SNB-75
[5] = tested on: XF498
[6] = tested on: SW-620
[7] = tested on: SF-268
[8] = tested on: CCRF-CEM
[9] = tested on: IGROV-1
[10] = tested on: HCT-15
[11] = tested on: LXFL 529
[12] = tested on: OVCAR-4
[13] = tested on: NCI-H460
[14] = tested on: MOLT-4
[15] = tested on: SF-539
[16] = tested on: CAKI-1
[17] = tested on: Malme-3M
[18] = tested on: COLO 205
[19] = tested on: UACC-62
[20] = tested on: M14
[21] = tested on: OVCAR-8
[22] = tested on: 786-0
[23] = tested on: KM-20L2
[24] = tested on: HOP-62
[25] = tested on: SR
[26] = tested on: M19-MEL
[27] = tested on: SNB-19
[28] = tested on: NCI-H522
[29] = tested on: HOP-92
[30] = tested on: U-251
[31] = tested on: HT-29
[32] = tested on: NCI-H226
[33] = tested on: K562
[34] = tested on: DMS-273
[35] = tested on: SK-OV-3
[36] = tested on: NCI-H23
[37] = tested on: OVCAR-3
[38] = tested on: UO-31
[39] = tested on: SNB-78
[40] = tested on: HL-60
[41] = tested on: HOP-18
[42] = tested on: KM12
[43] = tested on: RPMI-8226
[44] = tested on: RXF 631
[45] = tested on: DMS-114
[46] = tested on: DLD-1
[47] = tested on: SK-MEL-5
[48] = tested on: SK-MEL-28
[49] = tested on: SF-295
[50] = tested on: SN12C
[51] = tested on: ACHN
[52] = tested on: A549
[53] = tested on: HCT-116
[54] = tested on: SK-MEL-2
[55] = tested on: OVCAR-5
[56] = tested on: UACC-257
[57] = tested on: A498
[58] = tested on: LOX IMVI
[59] = tested on: HCC 2998

Measured: GI50

CN1CCCS/C1=C1/SC(=S)N(c2ccccc2)C1=O
> 100 µM: [10]
inactive: [1] > 100 µM | [2] > 100 µM | [3] > 100 µM | [4] > 100 µM | [5] > 100 µM | [6] > 100 µM | [7] > 100 µM | [8] > 100 µM | [9] > 100 µM | [11] > 100 µM | [12] > 100 µM | [13] > 100 µM | [14] > 100 µM | [15] > 100 µM | [16] > 100 µM | [17] > 100 µM | [18] > 100 µM | [19] > 100 µM | [20] > 100 µM | [21] > 100 µM | [22] > 100 µM | [23] > 100 µM | [24] > 100 µM | [25] > 100 µM | [26] > 100 µM | [27] > 100 µM | [28] > 100 µM | [29] > 100 µM | [30] > 100 µM | [31] > 100 µM | [32] > 100 µM | [33] > 100 µM | [34] > 100 µM | [35] > 100 µM | [36] > 100 µM | [37] > 100 µM | [38] > 100 µM | [39] > 100 µM | [40] > 100 µM | [41] > 100 µM | [42] > 100 µM | [43] > 100 µM | [44] > 100 µM | [45] > 100 µM | [46] > 100 µM | [47] > 100 µM | [48] > 100 µM | [49] > 100 µM | [50] > 100 µM | [51] > 100 µM | [52] > 100 µM | [53] > 100 µM | [54] > 100 µM | [55] > 100 µM | [56] > 100 µM | [57] > 100 µM | [58] > 100 µM

COc1ccc2c(c1OC)C(=O)c1cnccc1C2=O
inactive: [1] > 100 µM | [2] 24.9 µM | [3] > 100 µM | [59] > 100 µM | [4] > 100 µM | [5] > 100 µM | [6] > 100 µM | [8] > 100 µM | [9] > 100 µM | [11] > 100 µM | [12] > 100 µM | [13] > 100 µM | [14] > 100 µM | [15] > 100 µM | [16] > 100 µM | [17] > 100 µM | [18] > 100 µM | [19] > 100 µM | [20] > 100 µM | [21] > 100 µM | [22] > 100 µM | [23] > 100 µM | [24] > 100 µM | [25] > 100 µM | [26] > 100 µM | [27] > 100 µM | [28] > 100 µM | [29] > 100 µM | [30] > 100 µM | [31] > 100 µM | [32] > 100 µM | [33] > 100 µM | [34] > 100 µM | [35] > 100 µM | [36] > 100 µM | [37] > 100 µM | [38] > 100 µM | [39] > 100 µM | [40] > 100 µM | [41] > 100 µM | [42] > 100 µM | [43] > 100 µM | [44] > 100 µM | [45] > 100 µM | [46] > 100 µM | [47] > 100 µM | [48] > 100 µM | [49] > 100 µM | [50] > 100 µM | [51] > 100 µM | [52] > 100 µM | [53] > 100 µM | [54] > 100 µM | [55] > 100 µM | [56] > 100 µM | [58] > 100 µM
> 100 µM: [10]
